Converted amounts (≈) assume the structure as drawn.

This assay deals with Saur 9213. As to the kind of experiment: MIC test, standard agar dilution method. Type of assay: cell-based. The settings on record: Mueller Hinton agar, incubated overnight at 35° C., lowest concentration that inhibits visible growth. The source says:
The oxazolidinone antibacterial agents of this invention have useful activity against a variety of organisms. The in vitro activity of compounds of this invention can be assessed by standard testing procedures such as the determination of minimum inhibitory concentration (MIC) by agar dilution as described in “Approved Standard. Methods for Dilution Antimicrobial Susceptibility Tests for Bacteria That Grow Aerobically”, 3rd. ed., published 1993 by the National Committee for Clinical Laboratory Standards, Villanova, Pa., USA. MIC Test Method The in vitro MICs of test compounds were determined by a standard agar dilution method. A stock drug solution of each analog was prepared in the preferred solvent, usually DMSO:H2O (1:3). Serial 2-fold dilutions of each sample are made using 1.0 ml aliquots of sterile distilled water. To each 1.0 ml aliquot of drug was added 9 ml of molten Mueller Hinton gar medium. The drug-supplemented agar was mixed, poured into 15×100 mm petri dishes, and allowed to solidify and dry prior to inoculation. Vial of each of the test organisms are maintained frozen in the vapor phase of a liquid nitrogen freezer. Test cultures are grown overnight at 35° C. on the medium appropriate for the organism. Colonies are harvested with a sterile swab, and cell suspensions are prepared in Trypticase Soy broth (TSB) to equal the turbidity of a 0.5 McFarland standard. A 1:20 dilution of each suspension was made in TSB. The plates containing the drug supplemented agar are inoculated with a 0.001 ml drop of the cell suspension using a Steers replicator, yielding approximately 10^4 to 10^5 cells per spot. The plates are incubated overnight at 35° C. Following incubation the Minimum Inhibitory Concentration (MIC μg/ml), the lowest concentration of the drug that inhibits visible growth of the organism, was read and recorded.
(Agar dilution tests growth on a series of plates holding different concentrations.)
One may read the MIC as the smallest concentration in the dilution series that meets the test's criterion for growth inhibition. The low end stands for greater potency, the high end for weaker potency. The compound `CC(=O)NC[C@H]1CN(c2ccc(C3CCC(=O)NC3)c(F)c2)C(=O)O1` (stereo partly drawn) [Example 1, N-({(5S)-3-[3-fluoro-4-(6-oxopiperidin-3-yl)phenyl]-2-oxo-1,3-oxazolidin-5-yl}methyl)acetamide] showed an MIC of 4 µg/mL (≈ 11.4 µM).
As for `CCC(=O)NC[C@H]1CN(c2ccc(C3CCC(=O)NC3)c(F)c2)C(=O)O1` (stereo partly drawn) [Example 2, N-({(5S)-3-[3-fluoro-4-(6-oxopiperidin-3-yl)phenyl]-2-oxo-1,3-oxazolidin-5-yl}methyl)propanamide], the figure is 4 µg/mL (≈ 11 µM).
To `O=C1CCC(c2ccc(N3C[C@H](CNC(=O)C(Cl)Cl)OC3=O)cc2F)CN1` (stereo partly drawn) [Example 3, 2,2-dichloro-N-({(5S)-3-[3-fluoro-4-(6-oxopiperidin-3-yl)phenyl]-2-oxo-1,3-oxazolidin-5-yl}methyl)acetamide] belongs 4 µg/mL (≈ 9.56 µM).
To `O=C1CCC(c2ccc(N3C[C@H](CNC(=S)C(F)F)OC3=O)cc2F)CN1` (stereo partly drawn) [Example 4, 2,2-difluoro-N-({(5S)-3-[3-fluoro-4-(6-oxopiperidin-3-yl)phenyl]-2-oxo-1,3-oxazolidin-5-yl}methyl)ethanethioamide] belongs 1 µg/mL (≈ 2.49 µM); to `O=C1CCC(c2ccc(N3C[C@H](CNC(=O)C(F)F)OC3=O)cc2F)CN1` (stereo partly drawn) [Example 5, 2,2-difluoro-N-({(5S)-3-[3-fluoro-4-(6-oxopiperidin-3-yl)phenyl]-2-oxo-1,3-oxazolidin-5-yl}methyl)acetamide], 4 µg/mL (≈ 10.4 µM); to `CC(=O)NC[C@H]1CN(c2cc(F)c(C3CCC(=O)NC3)c(F)c2)C(=O)O1` (stereo partly drawn) [Example 6, N-({(5S)-3-[3,5-difluoro-4-(6-oxopiperidin-3-yl)phenyl]-2-oxo-1,3-oxazolidin-5-yl}methyl)acetamide], 4 µg/mL (≈ 10.9 µM).
With `O=C1CCC(c2c(F)cc(N3C[C@H](CNC(=O)C(Cl)Cl)OC3=O)cc2F)CN1` (stereo partly drawn) [Example 7, 2,2-dichloro-N-({(5S)-3-[3,5-difluoro-4-(6-oxopiperidin-3-yl)phenyl]-2-oxo-1,3-oxazolidin-5-yl}methyl)acetamide], the lowest concentration to inhibit growth (MIC) was 2 µg/mL (≈ 4.58 µM).
As for `O=C1CCC(c2c(F)cc(N3C[C@H](CNC(=S)C(F)F)OC3=O)cc2F)CN1` (stereo partly drawn) [Example 8, N-({(5S)-3-[3,5-difluoro-4-(6-oxopiperidin-3-yl)phenyl]-2-oxo-1,3-oxazolidin-5-yl}methyl)-2,2-difluoroethanethioamide], the figure is 1 µg/mL (≈ 2.38 µM).
To `O=C1CCC(c2c(F)cc(N3C[C@H](CNC(=O)C(F)F)OC3=O)cc2F)CN1` (stereo partly drawn) [Example 9, N-({(5S)-3-[3,5-difluoro-4-(6-oxopiperidin-3-yl)phenyl]-2-oxo-1,3-oxazolidin-5-yl}methyl)-2,2-difluoroacetamide] belongs 4 µg/mL (≈ 9.92 µM).
In turn, `CC(=O)NC[C@H]1CN(c2ccc(C3CCC(=O)NC3)cc2)C(=O)O1` (stereo partly drawn) [Example 10, N-({(5S)-2-oxo-3-[4-(6-oxopiperidin-3-yl)phenyl]-1,3-oxazolidin-5-yl}methyl)acetamide] had an MIC of 8 µg/mL (≈ 24.1 µM).
As for `CCC(=O)NC[C@H]1CN(c2ccc(C3CCC(=O)NC3)cc2)C(=O)O1` (stereo partly drawn) [Example 11, N-({(5S)-2-oxo-3-[4-(6-oxopiperidin-3-yl)phenyl]-1,3-oxazolidin-5-yl}methyl)propanamide], the figure is 8 µg/mL (≈ 23.2 µM); as for `O=C1CCC(c2ccc(N3C[C@H](CNC(=O)C(Cl)Cl)OC3=O)cc2)CN1` (stereo partly drawn) [Example 12, 2,2-dichloro-N-({(5S)-2-oxo-3-[4-(6-oxopiperidin-3-yl)phenyl]-1,3-oxazolidin-5-yl}methyl)acetamide], 4 µg/mL (≈ 9.99 µM); as for `O=C1CCC(c2ccc(N3C[C@H](CNC(=S)C(F)F)OC3=O)cc2)CN1` (stereo partly drawn) [Example 13, 2,2-difluoro-N-({(5S)-2-oxo-3-[4-(6-oxopiperidin-3-yl)phenyl]-1,3-oxazolidin-5-yl}methyl)ethanethioamide], 2 µg/mL (≈ 5.22 µM).
As for `CC(=O)NC[C@H]1CN(c2ccc(C3CCC(=O)N(C)C3)cc2)C(=O)O1` (stereo partly drawn) [Example 15, ({(5S)-3-[4-(1-methyl-6-oxopiperidin-3-yl)phenyl]-2-oxo-1,3-oxazolidin-5-yl}methyl)acetamide], the figure is 8 µg/mL (≈ 23.2 µM).
To `CC(=O)NC[C@H]1CN(c2ccc(C3CCNC(=O)C3)c(F)c2)C(=O)O1` (stereo partly drawn) [Example 16, N-({(5S)-3-[3-fluoro-4-(2-oxopiperidin-4-yl)phenyl]-2-oxo-1,3-oxazolidin-5-yl}methyl)acetamide] belongs 2 µg/mL (≈ 5.72 µM); to `CCC(=O)NC[C@H]1CN(c2ccc(C3CCNC(=O)C3)c(F)c2)C(=O)O1` (stereo partly drawn) [Example 17, N-({(5S)-3-[3-fluoro-4-(2-oxopiperidin-4-yl)phenyl]-2-oxo-1,3-oxazolidin-5-yl}methyl)propanamide], 4 µg/mL (≈ 11 µM).
Compound `O=C1CC(c2ccc(N3C[C@H](CNC(=S)C(F)F)OC3=O)cc2F)CCN1` (stereo partly drawn) [Example 18, 2,2-difluoro-N-({(5S)-3-[3-fluoro-4-(2-oxopiperidin-4-yl)phenyl]-2-oxo-1,3-oxazolidin-5-yl}methyl)ethanethioamide] showed a minimum inhibitory concentration (MIC) of 1 µg/mL (≈ 2.49 µM).
As for `CC(=O)NC[C@H]1CN(c2cc(F)c(C3CCNC(=O)C3)c(F)c2)C(=O)O1` (stereo partly drawn) [Example 19, N-({(5S)-3-[3,5-difluoro-4-(2-oxopiperidin-4-yl)phenyl]-2-oxo-1,3-oxazolidin-5-yl}methyl)acetamide], the figure is 4 µg/mL (≈ 10.9 µM); as for `CCC(=O)NC[C@H]1CN(c2cc(F)c(C3CCNC(=O)C3)c(F)c2)C(=O)O1` (stereo partly drawn) [Example 20, N-({(5S)-3-[3,5-difluoro-4-(2-oxopiperidin-4-yl)phenyl]-2-oxo-1,3-oxazolidin-5-yl}methyl)propanamide], 8 µg/mL (≈ 21 µM); as for `O=C1CC(c2c(F)cc(N3C[C@H](CNC(=S)C(F)F)OC3=O)cc2F)CCN1` (stereo partly drawn) [Example 21, N-({(5S)-3-[3,5-difluoro-4-(2-oxopiperidin-4-yl)phenyl]-2-oxo-1,3-oxazolidin-5-yl}methyl)-2,2-difluoroethanethioamide], 2 µg/mL (≈ 4.77 µM).
To `CC(=O)NC[C@H]1CN(c2ccc(C3CCNC(=O)C3)cc2)C(=O)O1` (stereo partly drawn) [Example 22, N-({(5S)-2-oxo-3-[4-(2-oxopiperidin-4-yl)phenyl]-1,3-oxazolidin-5-yl}methyl)acetamide] belongs 4 µg/mL (≈ 12.1 µM).
To `O=C1CC(c2ccc(N3C[C@H](CNC(=S)C(F)F)OC3=O)cc2)CCN1` (stereo partly drawn) [Example 23, 2,2-difluoro-N-({(5S)-2-oxo-3-[4-(2-oxopiperidin-4-yl)phenyl]-1,3-oxazolidin-5-yl}methyl)ethanethioamide] belongs 1 µg/mL (≈ 2.61 µM); to `CCC(=O)NC[C@H]1CN(c2ccc(C3CCNC(=O)C3)cc2)C(=O)O1` (stereo partly drawn) [Example 24, N-({(5S)-2-oxo-3-[4-(2-oxopiperidin-4-yl)phenyl]-1,3-oxazolidin-5-yl}methyl)propanamide], 8 µg/mL (≈ 23.2 µM).
Take `CC(=O)NC[C@H]1CN(c2ccc(C3CCN(C)C(=O)C3)cc2)C(=O)O1` (stereo partly drawn) [Example 25, N-({(5S)-3-[4-(1-methyl-2-oxopiperidin-4-yl)phenyl]-2-oxo-1,3-oxazolidin-5-yl}methyl)acetamide]: the MIC was found to be 4 µg/mL (≈ 11.6 µM).
As for `O=C1CCC(c2c(F)cc(N3C[C@H](Cn4ccnn4)OC3=O)cc2F)CN1` (stereo partly drawn) [Example 26, 5-{2,6-difluoro-4-[(5R)-2-oxo-5-(1H-1,2,3-triazol-1-ylmethyl)-1,3-oxazolidin-3-yl]phenyl}piperidin-2-one], the figure is 2 µg/mL (≈ 5.3 µM).

The values above are taken from patent publication US7094900B2, “N-Aryl-2-oxazolidinones and their derivatives” (Pharmacia & Upjohn Company LLC, priority 2002, dated 2006).
